One test addresses T1, SMYD3 (Homo sapiens, UniProt Q9H7B4).
T1 construct: The SMYD3 full length enzyme was produced in-house by expression (with an N-terminal 6×His tag) in E. coli; 6xHis (N); made in house; host or cells: E. coli
T1 sequence (Q9H7B4 1-428): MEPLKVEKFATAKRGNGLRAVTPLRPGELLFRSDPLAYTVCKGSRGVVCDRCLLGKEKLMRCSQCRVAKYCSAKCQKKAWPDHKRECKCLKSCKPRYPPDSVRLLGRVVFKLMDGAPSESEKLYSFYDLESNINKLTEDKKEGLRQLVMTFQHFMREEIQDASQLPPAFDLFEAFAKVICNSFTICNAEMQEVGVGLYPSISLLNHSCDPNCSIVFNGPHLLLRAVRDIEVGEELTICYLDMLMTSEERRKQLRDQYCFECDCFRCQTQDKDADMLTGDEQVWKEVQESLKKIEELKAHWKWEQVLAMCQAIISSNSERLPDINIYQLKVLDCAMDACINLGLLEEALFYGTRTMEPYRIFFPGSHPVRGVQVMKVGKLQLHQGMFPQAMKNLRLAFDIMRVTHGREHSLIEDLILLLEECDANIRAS
Description: SMYD3 Scintillation Proximity Assay (SPA), methylation of MAP3K2 Peptide. The format is biochemical. The note with it: SMYD3 full length enzyme 10 nM, 3H-SAM 125 nM, MAP3K2 Peptide 1 μM, 120 min at 22° C. The procedure:
SMYD3 Scintillation Proximity Assay (SPA)
The SMYD3 full length enzyme was produced in-house by expression (with an N-terminal 6×His tag) in E. coli and purification by affinity chromatography on a Ni-NTA Sepharose column followed by a size exclusion chromatography step on a Superdex 200 16/60 column (GE Healthcare).
To this end, 100-fold concentrated compound solutions (in DMSO) were previously prepared by serial dilution (1:3.4) of 2 mM stocks in a clear low volume 384-well source microtiter plate (Greiner Bio-One), from which 100 nl of compounds were transferred into a white low volume test microtiter plate from the same supplier. […] The resulting mixture (5 μl final volume) was shortly centrifuged (2 min., 1500 rpm) and incubated at 22° C. during 120 min. […] Plates containing the stopped reaction were sealed with transparent adhesive foil (Perkin Elmer), centrifuged (2 min., 1500 rpm), and further incubated overnight at 4° C. in order to allow the SPA signals to develop. Subsequently, the amount of product was evaluated by measuring the energy transfer from the […] emitted by the 3H-labeled substrate to the scintillator co-polymerized in the bead's matrix, using a TopCount NXT scintillation counter (Packard) with the standard instrument settings for this purpose. The resulting scintillation counts were taken as indicator for the amount of methylated peptide per well. […] IC50 values were calculated by fitting the normalized inhibition data to a 4-parameter logistic equation using the XLFit analysis software (IDBS).
On the technique in general: In a scintillation proximity assay essentially only radioactivity close to the scintillant gives light.

The target in test [1] is T2, untagged full length SMYD3 (Homo sapiens, UniProt Q9H7B4).
T2 construct: As protein untagged full length SMYD3 was used
T2 sequence (Q9H7B4 1-428): T1 sequence (Q9H7B4 1-428)
Nature of the test: Thermal Shift Assay. The note with it: protein 1.5-2.0 μM, 5× SYPRO Orange, scans 25° C. to 80° C.; control 4% DMSO. The format is binding. The procedure:
Thermal Shift Assay Thermal melting experiments were performed with a ViiA™ Real-Time PCR machine (Thermo Fisher Scientific) in 384-well microliter plate with a final volume of 5 μL. Melting curves were obtained at a protein concentration of 1.5-2.0 μM and 5× SYPRO Orange (Invitrogen) using buffer containing 20 mM Tris pH7.0; 150 mM NaCl; 1.0 mM DTT. As protein untagged full length SMYD3 was used. […] As control 4% DMSO was used. Scans were measured from 25° C. to 80° C. at a scanning rate of 0.1° C./sec. All TSA data were analyzed by using Genedata Assay Analyzer.

For the compound `Cc1nocc1C(=O)N1c2ccc(C(=O)NCCC3CCC3)cc2NC(=O)C(C)C1C` (single isomer, unassigned) [Example 16, N-(2-cyclobutylethyl)-2,3-dimethyl-1-[(3-methyl-1,2-oxazol-4-yl)carbonyl]-4-oxo-2,3,4,5-tetrahydro-1H-1,5-benzodiazepine-7-carboxamide], at SMYD3, it took 3380 nM to reach half-maximal inhibition (IC50). For the same compound, the “Thermal shift assay (° C.)” value in test [1] came to 3.51 °C.

Regarding `Cc1nocc1C(=O)N1c2ccc(C(=O)NCCC3CCC3)cc2NC(=O)C(C)C1C` (single isomer, unassigned) [Example 14, N-(2-cyclobutylethyl)-2,3-dimethyl-1-[(3-methyl-1,2-oxazol-4-yl)carbonyl]-4-oxo-2,3,4,5-tetrahydro-1H-1,5-benzodiazepine-7-carboxamide], the concentration for half-maximal inhibition (IC50) (usually the point on the concentration scale where inhibition reaches its midpoint) on SMYD3 was > 20000 nM. In test [1], the “Thermal shift assay (° C.)” value was 1.15 °C.

The compound `C[C@H]1CC(=O)Nc2cc(C(=O)NCCC3CC3)ccc2N1C(=O)N1CCC(F)(F)C1` [Example 24, (2S)—N-(2-cyclopropylethyl)-1-[(3,3-difluoropyrrolidin-1-yl)carbonyl]-2-methyl-4-oxo-2,3,4,5-tetrahydro-1H-1,5-benzodiazepine-7-carboxamide] registered an IC50 against SMYD3 of 706 nM. The “Thermal shift assay (° C.)” value in test [1] worked out at 7.35 °C.

On to `C[C@H]1CC(=O)Nc2cc(C(=O)NCCC3CC3)ccc2N1C(=O)N1CCC(NCC(F)(F)F)CC1` [Example 29, (2S)—N-(2-cyclopropylethyl)-2-methyl-4-oxo-1-({4-[(2,2,2-trifluoroethyl)amino]piperidin-1-yl}carbonyl)-2,3,4,5-tetrahydro-1H-1,5-benzodiazepine-7-carboxamide], for which the IC50 at SMYD3 was found to be 679 nM. Also, in test [1], the “Thermal shift assay (° C.)” value turned out to be 5.51 °C.

The compound `C[C@H]1CC(=O)Nc2cc(C(=O)N(C)CCC3CC3)ccc2N1C(=O)N1CC2CC2C1` (stereo partly drawn) [Example 54, (2S)-1-(3-azabicyclo[3.1.0]hexane-3-carbonyl)-N-(2-cyclopropylethyl)-N,2-dimethyl-4-oxo-2,3,4,5-tetrahydro-1H-1,5-benzodiazepine-7-carboxamide] came in with an IC50 at SMYD3 of 2530 nM.

As to `CCCCCNC(=O)c1ccc2c(c1)NC(=O)CC(C)N2C(=O)C1CCCC1` (racemic) [Example 48, 1-(cyclopentylcarbonyl)-2-methyl-4-oxo-N-pentyl-2,3,4,5-tetrahydro-1H-1,5-benzodiazepine-7-carboxamide], the concentration for half-maximal inhibition (IC50) against SMYD3 worked out at 26700 nM. Moreover, the “Thermal shift assay (° C.)” value in test [1] amounted to 1.60 °C.

In the case of `C[C@H]1CC(=O)Nc2cc(C(=O)NCCC3CC3)ccc2N1C(=O)N1CCN(CC(F)(F)F)CC1` [Example 30, (2S)—N-(2-cyclopropylethyl)-2-methyl-4-oxo-1-{[4-(2,2,2-trifluoroethyl)piperazin-1-yl]carbonyl}-2,3,4,5-tetrahydro-1H-1,5-benzodiazepine-7-carboxamide], at SMYD3, inhibition was half-maximal at 787 nM (IC50). The “Thermal shift assay (° C.)” value in test [1] was found to be 5.69 °C.

On to `Cc1nocc1C(=O)N1c2ccc(C(=O)NCCC3CCC3)cc2NC(=O)C(C)C1C` (single isomer, unassigned) [Example 15, N-(2-cyclobutylethyl)-2,3-dimethyl-1-[(3-methyl-1,2-oxazol-4-yl)carbonyl]-4-oxo-2,3,4,5-tetrahydro-1H-1,5-benzodiazepine-7-carboxamide], for which the concentration for half-maximal inhibition (IC50) at SMYD3 is ≥ 20000 nM. The “Thermal shift assay (° C.)” value in test [1] stood at 1.27 °C.

Take `C[C@H]1CC(=O)Nc2cc(C(=O)NCCC3CC3)ccc2N1C(=O)N(C)C1CCN(CC(F)(F)F)CC1` [Example 31, (2S)—N^7-(2-cyclopropylethyl)-N^1,2-dimethyl-4-oxo-N^1-[1-(2,2,2-trifluoroethyl)piperidin-4-yl]-2,3,4,5-tetrahydro-1H-1,5-benzodiazepine-1,7-dicarboxamide]: the IC50 on SMYD3 is 2520 nM. Also, the “Thermal shift assay (° C.)” value in test [1] was found to be 2.79 °C.

With `CCCCNC(=O)c1ccc2c(c1)NC(=O)CC(C)N2C(=O)c1ccccc1F` (racemic) [Example 53, N-butyl-1-(2-fluorobenzoyl)-2-methyl-4-oxo-2,3,4,5-tetrahydro-1H-1,5-benzodiazepine-7-carboxamide], at SMYD3, the IC50 is 12300 nM. Moreover, the “Thermal shift assay (° C.)” value in test [1] was found to be 2.53 °C.

In turn, `CC1C(=O)Nc2cc(C(=O)NCCC3CCC3)ccc2N(C(=O)N2CCC(N)CC2)C1C` (single isomer, unassigned) [Example 21, 1-[(4-aminopiperidin-1-yl)carbonyl]-N-(2-cyclobutylethyl)-2,3-dimethyl-4-oxo-2,3,4,5-tetrahydro-1H-1,5-benzodiazepine-7-carboxamide] returned an IC50 on SMYD3 of 54.2 nM. The “Thermal shift assay (° C.)” value in test [1] was found to be 9.35 °C.

Take `CC1C(=O)Nc2cc(C(=O)NCCC3CC3)ccc2N(C(=O)c2ccccc2)C1C` (mixture of isomers) [Example 2, 1-benzoyl-N-(2-cyclopropylethyl)-2,3-dimethyl-4-oxo-2,3,4,5-tetrahydro-1H-1,5-benzodiazepine-7-carboxamide]: the IC50 on SMYD3 is 1260 nM. In addition, in test [1], the “Thermal shift assay (° C.)” value turned out to be 5.21 °C.

In the case of `Cc1nocc1C(=O)N1c2ccc(C(=O)NCCC3CCC3)cc2NC(=O)CC1C` (racemic) [Example 6, N-(2-cyclobutylethyl)-2-methyl-1-[(3-methyl-1,2-oxazol-4-yl)carbonyl]-4-oxo-2,3,4,5-tetrahydro-1H-1,5-benzodiazepine-7-carboxamide], inhibition on SMYD3 was half-maximal at 12800 nM (IC50). Moreover, the “Thermal shift assay (° C.)” value in test [1] is 2.83 °C.

Compound `CC1CC(=O)Nc2cc(C(=O)NCCC3CCC3)ccc2N1C(=O)c1ccccc1` (racemic) [Example 3, 1-benzoyl-N-(2-cyclobutylethyl)-2-methyl-4-oxo-2,3,4,5-tetrahydro-1H-1,5-benzodiazepine-7-carboxamide] yielded a concentration for half-maximal inhibition (IC50) on SMYD3 of 1630 nM. Besides, in test [1], the “Thermal shift assay (° C.)” value was determined as 4.56 °C.

`CCCCNC(=O)c1ccc2c(c1)NC(=O)CC(C)N2C(=O)CCC1CCCC1` (racemic) [Example 51, N-butyl-1-(3-cyclopentylpropanoyl)-2-methyl-4-oxo-2,3,4,5-tetrahydro-1H-1,5-benzodiazepine-7-carboxamide] came in with a 50% inhibitory concentration (IC50) against SMYD3 of 24400 nM. For the same compound, the “Thermal shift assay (° C.)” value in test [1] is 1.83 °C.

Take `C[C@H]1CC(=O)Nc2cc(C(=O)NCCC3CC3)ccc2N1C(=O)N1CC[C@H](N)C1.Cl` [Example 37, (2S)-1-{[(3S)-3-aminopyrrolidin-1-yl]carbonyl}-N-(2-cyclopropylethyl)-2-methyl-4-oxo-2,3,4,5-tetrahydro-1H-1,5-benzodiazepine-7-carboxamide hydrochloride (1:1)]: the IC50 against SMYD3 was 215 nM. Further, the “Thermal shift assay (° C.)” value in test [1] amounted to 8.66 °C.

With `CCCNC(=O)c1ccc2c(c1)NC(=O)CC(C)N2C(=O)c1cccs1` (racemic) [Example 49, 2-methyl-4-oxo-N-propyl-1-(2-thienylcarbonyl)-2,3,4,5-tetrahydro-1H-1,5-benzodiazepine-7-carboxamide], in test [1], the “Thermal shift assay (° C.)” value worked out at 1.43 °C.

Consider `C[C@@H]1CC(=O)Nc2cc(C(=O)N(C)CCC3CC3)ccc2N1C(=O)N1CC2CC2C1` (stereo partly drawn) [Example 56, (2R)-1-(3-azabicyclo[3.1.0]hexane-3-carbonyl)-N-(2-cyclopropylethyl)-N,2-dimethyl-4-oxo-2,3,4,5-tetrahydro-1H-1,5-benzodiazepine-7-carboxamide], for which, at SMYD3, the IC50 was > 30000 nM.

As for `C[C@@H]1CC(=O)Nc2cc(C(=O)NCCC3CC3)ccc2N1C(=O)N1CC2CC2C1` (stereo partly drawn) [Example 55, (2R)-1-(3-azabicyclo[3.1.0]hexane-3-carbonyl)-N-(2-cyclopropylethyl)-2-methyl-4-oxo-2,3,4,5-tetrahydro-1H-1,5-benzodiazepine-7-carboxamide], 2640 nM corresponded to half-maximal inhibition against SMYD3 (IC50).

Take `CCCCNC(=O)c1ccc2c(c1)NC(=O)CC(C)N2C(=O)C1CC1` (racemic) [Example 50, N-butyl-1-(cyclopropylcarbonyl)-2-methyl-4-oxo-2,3,4,5-tetrahydro-1H-1,5-benzodiazepine-7-carboxamide]: the half-maximal inhibitory concentration (IC50) on SMYD3 was determined as 35000 nM.

For the origin of these results see patent US11161825B2, “4-oxo-2,3,4,5-tetrahydro-1H-1,5-benzodiazepine-7-carboxamides” (Bayer Aktiengesellschaft, priority 2017, dated 2021).
